The record followed here is ChEMBL document CHEMBL6182928, “Characterization of Hepatotropic Small Molecule Inhibitors of Hypoxia Inducible Factor Prolyl Hydroxylase in the Prevention of Oxygen-Induced Retinopathy” (J Med Chem, 2025).

For test [1], the target named is Hypoxia-inducible factor 1-alpha (Homo sapiens) (UniProt Q16665). The test is described as follows: Induction of stabilization of HIF-1alpha in human Hep3B cells by measuring fold change protein level at 500 uM incubated for 3 hrs by Western blot analysis. It counts as cell-based. On the technique in general: Immunoblotting shows a protein as a band on a membrane.
Chain of Hypoxia-inducible factor 1-alpha (Homo sapiens) (Q16665 whole entry, looked up): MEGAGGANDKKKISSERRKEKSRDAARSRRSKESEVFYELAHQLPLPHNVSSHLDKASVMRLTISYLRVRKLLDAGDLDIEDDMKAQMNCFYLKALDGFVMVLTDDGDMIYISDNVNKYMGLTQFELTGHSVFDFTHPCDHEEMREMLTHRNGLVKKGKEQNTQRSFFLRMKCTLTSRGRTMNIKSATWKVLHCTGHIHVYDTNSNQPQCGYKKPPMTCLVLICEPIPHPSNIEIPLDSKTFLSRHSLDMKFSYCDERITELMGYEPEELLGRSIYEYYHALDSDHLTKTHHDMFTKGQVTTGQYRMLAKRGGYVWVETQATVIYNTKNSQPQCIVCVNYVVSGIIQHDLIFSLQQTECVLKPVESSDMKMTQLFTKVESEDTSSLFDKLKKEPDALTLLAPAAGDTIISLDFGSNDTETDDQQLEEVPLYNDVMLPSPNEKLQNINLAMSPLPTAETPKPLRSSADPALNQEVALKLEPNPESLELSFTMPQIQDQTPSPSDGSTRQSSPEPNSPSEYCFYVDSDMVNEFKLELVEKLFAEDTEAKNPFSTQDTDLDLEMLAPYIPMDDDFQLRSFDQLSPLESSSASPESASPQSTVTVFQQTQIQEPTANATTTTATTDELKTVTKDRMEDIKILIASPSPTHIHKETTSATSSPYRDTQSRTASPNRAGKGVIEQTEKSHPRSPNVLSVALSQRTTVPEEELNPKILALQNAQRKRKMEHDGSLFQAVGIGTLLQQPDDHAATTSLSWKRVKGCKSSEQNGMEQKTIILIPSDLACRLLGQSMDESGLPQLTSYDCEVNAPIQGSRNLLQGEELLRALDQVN

Test [2] has as its target Hypoxia-inducible factor 1-alpha (Mus musculus) (UniProt Q61221). Nature of the test: Induction of stabilization of HIF-1alpha in mouse NIH-3T3-HIF/Luc cells assessed as activation of HRE by measuring […] at 500 uM incubated for 24 hrs by Bright-glo luciferase assay. Type of test: cell-based.
Test [3] deals with Hypoxia-inducible factor 1-alpha (Homo sapiens) (UniProt Q16665). Nature of the test: Induction of stabilization of HIF-1alpha in human Hep3B cells incubated for 24 hrs by Immunoblot analysis. Type of test: cell-based.
Test [4] deals with Hypoxia-inducible factor 1-alpha (Mus musculus) (UniProt Q61221). The test is described as follows: Induction of stabilization of HIF-1alpha in mouse NIH-3T3-HIF/Luc cells assessed as activation of HRE at 1 mM incubated for 24 hrs by Bright-glo luciferase assay. Type of test: cell-based.
Chain of Hypoxia-inducible factor 1-alpha (Mus musculus) (Q61221 whole entry): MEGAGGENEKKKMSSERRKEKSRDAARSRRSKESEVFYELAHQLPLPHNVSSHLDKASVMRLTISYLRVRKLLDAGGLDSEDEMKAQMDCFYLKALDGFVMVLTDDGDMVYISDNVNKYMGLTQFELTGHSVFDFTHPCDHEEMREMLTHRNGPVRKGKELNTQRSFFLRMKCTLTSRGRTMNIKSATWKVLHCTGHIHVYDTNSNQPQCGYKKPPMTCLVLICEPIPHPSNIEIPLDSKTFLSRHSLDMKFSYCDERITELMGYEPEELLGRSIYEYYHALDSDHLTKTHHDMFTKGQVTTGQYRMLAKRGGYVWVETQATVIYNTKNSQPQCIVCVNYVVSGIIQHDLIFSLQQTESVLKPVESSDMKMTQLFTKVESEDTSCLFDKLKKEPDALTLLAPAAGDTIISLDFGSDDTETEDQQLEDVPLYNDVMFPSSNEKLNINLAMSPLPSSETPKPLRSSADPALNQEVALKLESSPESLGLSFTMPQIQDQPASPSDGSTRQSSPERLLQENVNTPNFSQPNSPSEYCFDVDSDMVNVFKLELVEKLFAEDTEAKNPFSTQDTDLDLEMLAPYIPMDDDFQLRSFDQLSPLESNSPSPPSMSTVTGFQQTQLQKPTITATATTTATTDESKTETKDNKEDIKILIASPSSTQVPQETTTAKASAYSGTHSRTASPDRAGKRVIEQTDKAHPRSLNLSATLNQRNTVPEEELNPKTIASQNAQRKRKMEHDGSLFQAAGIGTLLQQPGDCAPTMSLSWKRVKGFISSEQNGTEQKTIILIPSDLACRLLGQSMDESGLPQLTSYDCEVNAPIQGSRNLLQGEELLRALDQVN
Test [5] deals with Hypoxia-inducible factor 1-alpha (Homo sapiens) (UniProt Q16665). Nature of the test: Induction of stabilization of HIF-1alpha in human Hep3B cells at 1 mM measured at 3 to 6 hrs by Immunoblot analysis. The settings on record: time 3-6 hrs. Type of test: cell-based.
The target of test [6] is Hypoxia-inducible factor 1-alpha (Mus musculus) (UniProt Q61221). The test is described as follows: Induction of stabilization of HIF-1alpha in mouse NIH-3T3-HIF/Luc cells assessed as activation of HRE measured at 24 hrs by Bright-glo luciferase assay. It counts as cell-based.
In test [7] the target is Hypoxia-inducible factor 1-alpha (Homo sapiens) (UniProt Q16665). Nature of the test: Induction of stabilization of HIF-1alpha in human Hep3B cells at 1 to 4 mM measured at 24 hrs by Immunoblot analysis. It counts as cell-based. As to conditions: dose 1-4 mM.
The target of test [8] is Hypoxia-inducible factor 1-alpha (Mus musculus) (UniProt Q61221). The test is described as follows: Induction of stabilization of HIF-1alpha in mouse NIH-3T3-HIF/Luc cells assessed as activation of HRE at 1 to 4 mM measured at 48 hrs by Bright-glo luciferase assay. Type of test: cell-based. As to conditions: dose 1-4 mM.
In test [9] the target is Hypoxia-inducible factor 1-alpha (Homo sapiens) (UniProt Q16665). The test is described as follows: Induction of stabilization of HIF-1alpha in human Hep3B cells measured at 3 hrs by Western blot analysis. Type of test: cell-based.
Test [10] concerns Mus musculus. The test is described as follows: In vivo inhibition of PHD in Luc-ODD mouse model assessed as stabilization of HIF-1alpha in kidney at 1 mM, ip single dose on postnatal day 8 measured after 3 hrs by Bright-glo luciferase assay. It counts as functional, organism-based.
For test [11], the system named is Mus musculus. The test is described as follows: In vivo inhibition of PHD in Luc-ODD mouse model assessed as stabilization of HIF-1alpha in liver at 1 mM, ip single dose on postnatal day 8 measured after 3 hrs by Bright-glo luciferase assay. Type of test: functional, organism-based.
Test [12] relates to Mus musculus. The test is described as follows: In vivo inhibition of PHD in Luc-ODD mouse model assessed as stabilization of HIF-1alpha in liver at 1 mM, ip single dose on postnatal day 7 measured after 24 hrs by Bright-glo luciferase assay. It counts as functional, organism-based.
The subject of test [13] is Mus musculus. Nature of the test: In vivo inhibition of PHD in Luc-ODD mouse model assessed as stabilization of HIF-1alpha in brain at 1 mM, ip single dose on postnatal day 7 measured at 3 to 24 hrs by Bright-glo luciferase assay. Type of test: functional, organism-based. As to conditions: time 3-24 hrs.
Test [14] concerns Mus musculus. The test is described as follows: Protection against oxygen-induced retinopathy in wild type C57BL/6J mouse pup assessed as reduction in retinal vaso-obliteration at 1 mmol/Kg, ip administered on postnatal day 6, 8, 10 and reared in 75% oxygen exposure on postnatal day 7 to day 12 and measured on postnatal day 17 by lectin based staining analysis. Type of test: functional, organism-based. As to conditions: time 12.0 day.

Test [15] has as its system Mus musculus. Nature of the test: Protection against oxygen-induced retinopathy in wild type C57BL/6J mouse pup assessed as reduction in retinal neovascularization at 1 mmol/Kg, ip administered on postnatal day 6, 8, 10 and reared in 75% oxygen exposure on postnatal day 7 to day 12 and measured on postnatal day 17 by lectin based staining analysis. It counts as functional, organism-based. As to conditions: time 12.0 day.

Test [16] concerns Mus musculus. The test is described as follows: Protection against oxygen-induced retinopathy in liver-specific HIF knockout (LHKO) mouse pup assessed as reduction in retinal vaso-obliteration at 1 mmol/Kg, ip administered on postnatal day 6, 8, 10 and reared in 75% oxygen exposure on postnatal day 7 to day 12 and measured on postnatal day 17 by lectin based staining analysis. Type of test: functional, organism-based. The settings on record: time 12.0 day.

Test [17] concerns Mus musculus. Nature of the test: Protection against oxygen-induced retinopathy in wild type C57BL/6J mouse pup assessed as reduction in avascular retina at 1 mmol/Kg, ip administered on postnatal day 6, 8, 10 and reared in 75% oxygen exposure on postnatal day 7 to day 12 and measured on postnatal day 17 by lectin based staining analysis. Type of test: functional, organism-based. The settings on record: time 12.0 day.

Test [18] deals with Mus musculus. Nature of the test: Effect on myelination in oxygen-induced hypomyelination mouse pup model assessed as effect on myelin basic protein level in brain administered as ip dose on postnatal day 3, 5, 7 and reared in 80% oxygen exposure on postnatal day 4 to day 8 and measured on postnatal day 11 by Western blot analysis. Type of test: functional, organism-based. As to conditions: time 9.0 day.

Test [19] concerns Mus musculus. The test is described as follows: Effect on myelination in oxygen-induced hypomyelination mouse pup model assessed as effect on HIF-1alpha level in brain administered as ip dose on postnatal day 3, 5, 7 and reared in 80% oxygen exposure on postnatal day 4 to day 8 and measured on postnatal day 11 by Western blot analysis. Type of test: functional, organism-based. The settings on record: time 9.0 day.

Test [20] concerns Mus musculus. The test is described as follows: Protection against oxygen-induced hypomyelination in mouse pup assessed as increase in serpine1 mRNA level in liver administered as ip dose on postnatal day 3, 5, 7 and reared in 80% oxygen exposure on postnatal day 4 to day 8 and measured on postnatal day 11. Type of test: functional, organism-based. As to conditions: time 9.0 day.

Test [21] concerns Mus musculus. Nature of the test: Protection against oxygen-induced hypomyelination in mouse pup assessed as increase in vegf mRNA level in liver administered as ip dose on postnatal day 3, 5, 7 and reared in 80% oxygen exposure on postnatal day 4 to day 8 and measured on postnatal day 11. It counts as functional, organism-based. The settings on record: time 9.0 day.
Test [22] relates to Mus musculus. The test is described as follows: Protection against oxygen-induced hypomyelination in mouse pup assessed as increase in Bnip3 mRNA level in liver administered as ip dose on postnatal day 3, 5, 7 and reared in 80% oxygen exposure on postnatal day 4 to day 8 and measured on postnatal day 11. The settings on record: time 9.0 day. It counts as functional, organism-based.

For test [23], the system named is Mus musculus. Nature of the test: Protection against oxygen-induced hypomyelination in mouse pup assessed as increase in Cox4i2 mRNA level in liver administered as ip dose on postnatal day 3, 5, 7 and reared in 80% oxygen exposure on postnatal day 4 to day 8 and measured on postnatal day 11. The settings on record: time 9.0 day. Type of test: functional, organism-based.

Test [24] has as its system Mus musculus. Nature of the test: Protection against oxygen-induced retinopathy in mouse pup assessed as astrocyte survival administered as ip dose on postnatal day 6, 8, 10 and reared in 75% oxygen exposure on postnatal day 7 to day 12 and measured on postnatal day 17 by isolectin/GFAP based staining analysis. Type of test: functional, organism-based. As to conditions: time 12.0 day.

In test [25] the test system is Mus musculus. The test is described as follows: Protection against oxygen-induced retinopathy in mouse pup assessed as glia preservation in total retinal flat mount administered as ip dose on postnatal day 6, 8, 10 and reared in 75% oxygen exposure on postnatal day 7 to day 12 and measured on postnatal day 17 by isolectin/GFAP based staining analysis. Type of test: functional, organism-based. As to conditions: time 12.0 day.

The subject of test [26] is Mus musculus. The test is described as follows: Protection against oxygen-induced hypomyelination in mouse pup assessed as increase in bipolar cell activity by measuring amplitude of ERG b-wave administered as ip dose on postnatal day 3, 5, 7 and reared in 80% oxygen exposure on postnatal day 4 to day 8 and measured on postnatal day 11 by electroretinogram analysis. Type of test: functional, organism-based. As to conditions: time 9.0 day.

Each structure is given as a SMILES string. Calls of active or inactive are those of the source. The calls are words filed in the database; no cut-off is given here.

In the case of `COC(=O)OC(C)OC(=O)CNC(=O)C(=O)OC` (centres undefined), the fold change (FC) is 3 in [1] and below 2 in [2].

In the case of `CCOC(=O)OC(C)OC(=O)CNC(=O)C(=O)OC` (centres undefined), the values for the fold change (FC) in [1] and in test [2] were 3 and below 2, respectively.

Turning to `CCC(=O)OC(C)OC(=O)CNC(=O)C(=O)OC` (centres undefined), the results for the fold change (FC) in test [1] and in [2] were 4 and below 2, respectively.

In the case of `COC(=O)C(=O)NCC(=O)OC(C)OC(=O)c1ccccc1` (centres undefined), the figures for the fold change (FC) in [1] and in test [2] were 5 and below 2, respectively.

On to `COC(=O)C(=O)NCC(=O)OC(C)OC(=O)C(C)(C)C` (centres undefined), for which the values for the fold change (FC) in test [1] and in test [2] were 6 and below 2, respectively.

In the case of `COC(=O)C(=O)NCC(=O)OCOC(=O)C(C)C`, the fold change (FC) in test [1] and in test [2] was below 1 each time.

Take `COC(=O)C(=O)NCC(=O)OC(C)OC(=O)OC(C)C` (centres undefined): the figures for the fold change (FC) in test [1] and in test [2] were 3 and below 2, respectively.

With `COC(=O)C(=O)NCC(=O)OC(C)OC(=O)OC(C)(C)C` (centres undefined), the values for the fold change (FC) in test [1] and in test [2] were 2 and below 2, respectively.

Consider `COC(=O)C(=O)NCC(=O)OCOC(C)=O`, for which the fold change (FC) in test [1] is 2; in test [2], below 1.

With `COC(=O)C(=O)NCC(=O)OCOC(=O)OC(C)(C)C`, the fold change (FC) in test [1] and in test [2] was below 1 in each case.

As to `COC(=O)C(=O)NCC(=O)OC(C)OC(C)=O` (centres undefined), the fold change (FC) in [1] was 6; in [2] it was below 2.

Turning to `CCC(=O)OCOC(=O)CNC(=O)C(=O)OC`, the fold change (FC) was 1 in [1] and below 1 in test [2].

For `COC(=O)C(=O)NCC(=O)OC(C)OC(=O)C(C)C` (centres undefined), the fold change (FC) in test [1] is 7; in test [2], below 2.

With `COC(=O)OCOC(=O)CNC(=O)C(=O)OC`, the fold change (FC) in [1] and in test [2] was below 1 throughout.

Turning to `COC(=O)C(=O)NCC(=O)OC(C)C`, the result (in [3]; in [4]; in [5]; in the test on Mus musculus [10]; in the test on Mus musculus [11]; in the test with Mus musculus [12]) was Active. Further, the result in the test on Mus musculus [14], in the test on Mus musculus [15], with Mus musculus [17], in the test with Mus musculus [24], in the test with Mus musculus [25] and in the test on Mus musculus [26] was Active. The ED50 in test [6] is 1140 µM; in test [9], 2130 µM. Besides, the result (in test [7]; in [8]; with Mus musculus [13]; with Mus musculus [18]; in the test on Mus musculus [19]) was inactive. For the same compound, the Activity entry is listed as “Active; Less Protected Compared To Compound Treated Wild-Type Mouse” in the test on Mus musculus [16]; “Active; Compound Showed Higher Mrna Expression In Liver Compared To Brain” in the test with Mus musculus [20]; “Active; Compound Showed Higher Mrna Expression In Liver Compared To Brain” with Mus musculus [21]; “Active; Compound Showed Higher Mrna Expression In Liver Compared To Brain” in the test with Mus musculus [22]; “Active; Compound Showed Higher Mrna Expression In Liver Compared To Brain” in the test on Mus musculus [23].

Consider `COC(=O)C(=O)NCC(=O)OCOC(=O)c1ccccc1`, for which the results for the fold change (FC) in test [1] and in [2] were 3 and below 2, respectively.

In the case of `COC(=O)C(=O)NCC(=O)OCOC(=O)OC(C)C`, the fold change (FC) in test [1] and in test [2] was below 1 each time.

Consider `COC(=O)C(=O)NCC(=O)OCOC(=O)C(C)(C)C`, for which the figures for the fold change (FC) in test [1] and in test [2] were 1 and below 1, respectively.

For the compound `CCOC(=O)OCOC(=O)CNC(=O)C(=O)OC`, the fold change (FC) in test [1] and in [2] was below 1 throughout.

Consider `COC(=O)C(=O)NCC(=O)OC(C)OC(=O)Oc1ccccc1` (centres undefined), for which the fold change (FC) in test [1] is 5; in [2], below 2.

On to `COC(=O)C(=O)NCC(=O)OCOC(=O)Oc1ccccc1`, for which the fold change (FC) in test [1] and in [2] was below 1 in each case.
